A value given as a limit tells only on which side of the number the result lay.

One assay deals with T1, A. baumannii PBP2 (Acinetobacter baumannii, UniProt D0C8Z9).
T1 construct: made in house
T1 sequence (D0C8Z9 1-672): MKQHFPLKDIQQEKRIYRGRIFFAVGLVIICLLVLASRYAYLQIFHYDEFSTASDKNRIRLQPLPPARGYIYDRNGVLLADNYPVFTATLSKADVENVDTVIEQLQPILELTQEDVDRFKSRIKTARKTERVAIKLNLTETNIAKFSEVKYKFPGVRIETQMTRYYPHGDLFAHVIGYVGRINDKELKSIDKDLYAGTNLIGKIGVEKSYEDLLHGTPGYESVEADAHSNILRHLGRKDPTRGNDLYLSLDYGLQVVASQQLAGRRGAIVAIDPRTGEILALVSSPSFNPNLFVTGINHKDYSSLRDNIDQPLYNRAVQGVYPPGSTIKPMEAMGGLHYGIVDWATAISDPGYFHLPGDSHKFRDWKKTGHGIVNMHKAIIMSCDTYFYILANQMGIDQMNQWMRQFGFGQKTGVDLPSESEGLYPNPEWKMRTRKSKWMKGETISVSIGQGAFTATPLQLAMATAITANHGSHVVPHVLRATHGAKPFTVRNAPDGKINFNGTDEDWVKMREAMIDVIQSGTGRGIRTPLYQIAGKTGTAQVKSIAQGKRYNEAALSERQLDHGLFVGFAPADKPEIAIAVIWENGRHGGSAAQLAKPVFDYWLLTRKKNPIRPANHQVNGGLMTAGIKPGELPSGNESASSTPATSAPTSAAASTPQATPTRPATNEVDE
Put plainly: Bocillin-FL fluorescence polarization competition binding assay, A. baumannii PBP2. The settings on record: fluorescence polarization competition binding assay using Bocillin-FL; read-out: A. baumannii PBP2 Potency. From the text:
Example I: Experimental Method for Penicillin-Binding Protein Binding Assays with Bocillin-FL Via Fluorescence Polarization
To determine the ability of boronic acid-based test PBP inhibitors to bind Penicillin Binding Proteins (PBPs), Bocillin-FL (fluorescently-labeled penicillin V; ThermoFisher Scientific) was used in a fluorescence polarization (FP) competition binding assay to assess inhibitor binding to PBP2, PBP3 or PBP4 from Escherichia coli (K12), PBP3 from Pseudomonas aeruginosa (PA01), PBP1a, PBP2 and PBP3 from Acinetobacter baumannii (ATCC 19606), and PBP2 from Neiserria gonorrheae (FA19). PBPs were cloned and purified as described previously (E. coli PBPs, King, D. T, et al., ACS Infectious Diseases 2015, 1, 175-184; P. aeruginosa PBP3, Han et. al., PNAS 2010, 107 (51), 22002-22007; A. baumannii PBPs, Penwell et. al., Antimicrob. Agents Chemother. 2015, 59 (3), 1680-1689; N. gonorrhoeae PBP2, Singh et. al., J Biol. Chem. 2019, 294 (38), 14020-14032). To establish assay conditions for competition binding, enzyme titration/saturation binding experiments were initially performed. Bocillin-FL was prepared at 0.2 μM in a buffer comprised of 50 mM Hepes (pH 8.0), 300 mM NaCl and 5% (v/v) glycerol for reactions with E. coli, P. aeruginosa and N. gonorrhoeae PBPs, and 25 mM Tris (pH 8.0), 200 mM NaCl and 10% (v/v) glycerol and 0.005% (v/v) Tween 20 for reactions with A. baumannii PBPs. Saturation binding was performed by mixing 40 μl of PBP solutions ranging in concentrations from 0-24 μM with 40 μl of the 0.2 μM Bocillin-FL solution, in individual wells of a black 384-well microplate. FP was measured immediately upon mixing (Excitation, 490 nm; Emission, 520 nm; g-factor, 0.96), using a Cytation3 (BioTek) microplate reader and measured continuously for up to 120 minutes. […] The competition binding assay (80 μl final volume) was validated using beta-lactams and PBPs at final concentrations of: 1.5 μM, E. coli PBP3; 0.75 μM, P. aeruginosa PBP3; 1 μM A. baumannii PBP1a; 2.5 μM A. baumannii PBP2; 0.2 μM A. baumannii PBP3; and […] N. gonorrhoeae PBP2. Bocillin-FL was at 0.1 μM (0.05 μM with A. baumannii PBP1a) and beta-lactam concentrations ranged from 0-1000 μM. […] Bocillin-FL was added and the FP immediately measured for up to 60 minutes (90 minutes for E. coli PBP2). […] The beta-lactam potency was reported as the concentration of beta-lactam required to reduce the amount of PBP bound-Bocillin-FL by 50% (EC50). […] Binding assays for boronic acid PBP inhibitors were performed in an identical fashion for the respective PBPs
For orientation: In fluorescence polarisation assays a small probe gives low polarisation when free and higher when bound to something large.

A short description of assay [1]: Bocillin-FL fluorescence polarization competition binding assay, A. baumannii PBP3. The conditions noted are these: fluorescence polarization competition binding assay using Bocillin-FL; column 3; read-out: 4. baumannii PBP1a Potency. Put shortly: (§1)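 A. baumannii PBP2 (2.5 μM) and PBP3 (0.2 μM) were run in 25 mM Tris pH 8.0 buffer with Tween 20; E. coli PBP3 (1.5 μM) and N. gonorrhoeae PBP2 ([…]) in 50 mM Hepes pH 8.0 buffer.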

A further assay addresses T2, P. aeruginosa PBP3 (Pseudomonas aeruginosa, UniProt G3XD46).
T2 construct: made in house
Description: Bocillin-FL fluorescence polarization competition binding assay, P. aeruginosa PBP3. The settings on record: fluorescence polarization competition binding assay using Bocillin-FL. Put shortly:
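Inhibitor competition with Bocillin-FL for P. aeruginosa PBP3 was followed by fluorescence polarization on a Cytation3 (BioTek) reader, using g-factor 0.96, 490 nm excitation and 520 nm emission. The enzyme was at 0.75 μM and the probe at 0.1 μM in Hepes/NaCl/glycerol buffer, 80 μl per well. FP was recorded immediately after probe addition for up to 60 minutes. Potency was expressed as EC50, the concentration that reduces bound probe by 50%.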

Another assay deals with T3, N. gonorrhoeae PBP2 (Neisseria gonorrhoeae, UniProt P08149).
T3 construct: made in house
Put plainly: Bocillin-FL fluorescence polarization competition binding assay, N. gonorrhoeae PBP2. The settings on record: fluorescence polarization competition binding assay using Bocillin-FL; read-out: N. gonorrhoeae PBP2 Potency. Put shortly: as §1

T2 sequence (G3XD46 whole entry): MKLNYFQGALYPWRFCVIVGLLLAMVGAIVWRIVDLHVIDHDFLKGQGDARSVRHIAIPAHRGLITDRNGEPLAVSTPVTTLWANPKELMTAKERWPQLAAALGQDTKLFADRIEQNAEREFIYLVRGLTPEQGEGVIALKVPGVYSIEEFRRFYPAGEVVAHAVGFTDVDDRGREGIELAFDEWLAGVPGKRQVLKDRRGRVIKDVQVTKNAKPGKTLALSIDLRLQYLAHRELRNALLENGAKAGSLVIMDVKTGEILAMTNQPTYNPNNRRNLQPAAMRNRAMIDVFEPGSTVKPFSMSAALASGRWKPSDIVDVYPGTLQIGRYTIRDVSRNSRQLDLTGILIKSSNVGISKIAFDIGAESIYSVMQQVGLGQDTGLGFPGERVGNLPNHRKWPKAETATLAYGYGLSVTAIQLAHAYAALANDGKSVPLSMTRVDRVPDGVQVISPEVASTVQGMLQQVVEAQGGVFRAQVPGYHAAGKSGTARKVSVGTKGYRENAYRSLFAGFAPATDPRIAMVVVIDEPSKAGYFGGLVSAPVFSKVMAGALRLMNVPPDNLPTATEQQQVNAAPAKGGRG
T3 sequence (P08149 whole entry): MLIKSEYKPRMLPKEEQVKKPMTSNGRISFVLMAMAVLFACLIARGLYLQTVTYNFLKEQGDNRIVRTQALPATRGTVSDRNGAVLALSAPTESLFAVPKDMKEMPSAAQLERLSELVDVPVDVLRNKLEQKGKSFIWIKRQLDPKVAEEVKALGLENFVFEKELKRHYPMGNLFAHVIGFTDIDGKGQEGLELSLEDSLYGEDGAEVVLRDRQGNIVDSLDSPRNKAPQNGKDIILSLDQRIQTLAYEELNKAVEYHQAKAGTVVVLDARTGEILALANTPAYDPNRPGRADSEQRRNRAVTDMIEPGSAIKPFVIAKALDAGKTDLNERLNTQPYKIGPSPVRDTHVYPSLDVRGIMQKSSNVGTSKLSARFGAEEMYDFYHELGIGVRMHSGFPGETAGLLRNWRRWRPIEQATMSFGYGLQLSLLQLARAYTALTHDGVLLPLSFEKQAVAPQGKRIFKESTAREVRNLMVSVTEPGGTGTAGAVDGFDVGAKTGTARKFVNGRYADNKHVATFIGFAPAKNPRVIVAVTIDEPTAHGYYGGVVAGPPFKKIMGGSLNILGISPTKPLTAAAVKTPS

`NC1(CN2CCN(C(=O)N[C@@H](C(=O)N[C@H]3Cc4ccc(F)c(C(=O)O)c4OB3O)c3c(F)cc(O)c(O)c3Cl)C(=O)C2=O)CC1` (single isomer, unassigned) [Example 134]: the EC50 on A. baumannii PBP2 is 30 to 100 µM; in assay [1] it was less than 10 µM. Besides, the “P. aeruginosa PBP3 Potency” value at P. aeruginosa PBP3 is given as “D (D represents a potency <10 μM)”.
As to `NCCN1CCN(C(=O)N[C@@H](C(=O)N[C@H]2Cc3ccc(F)c(C(=O)O)c3OB2O)c2cc(F)c(O)c(O)c2Cl)C(=O)C1=O` (single isomer, unassigned) [Example 179], the EC50 (at A. baumannii PBP2; on N. gonorrhoeae PBP2; in assay [1]) was greater than 100 µM each time. Further, on P. aeruginosa PBP3, the “P. aeruginosa PBP3 Potency” value is on record as “D (D represents a potency <10 μM)”.
On to `NCCCN1CCN(C(=O)N[C@@H](C(=O)N[C@H]2Cc3ccc(F)c(C(=O)O)c3OB2O)c2cc(F)c(O)c(O)c2Cl)C(=O)C1=O` (single isomer, unassigned) [Example 180], for which the EC50 (at A. baumannii PBP2; at N. gonorrhoeae PBP2; in assay [1]) was greater than 100 µM each time. In addition, the “P. aeruginosa PBP3 Potency” value at P. aeruginosa PBP3 is “D (D represents a potency <10 μM)”.
`C[C@@H](O)[C@@H](NC(=O)N1CCN(CCNC(=O)c2c(F)cc(O)c(O)c2Cl)C(=O)C1=O)C(=O)N[C@H]1Cc2ccc(F)c(C(=O)O)c2OB1O` [Example 102, (R)-3-((2R,3R)-2-(4-(2-(2-chloro-6-fluoro-3,4-dihydroxybenzamido)ethyl)-2,3-dioxopiperazine-1-carboxamido)-3-hydroxybutanamido)-7-fluoro-2-hydroxy-3,4-dihydro-2H-benzo[e][1,2]oxaborinine-8-carboxylic acid]: the EC50 on A. baumannii PBP2 was greater than 100 µM; at N. gonorrhoeae PBP2, 10 to 30 µM; in assay [1], 30 to 100 µM. Further, at P. aeruginosa PBP3, the “P. aeruginosa PBP3 Potency” value is “D (D represents a potency <10 μM)”.
Regarding `NS(=O)(=O)Nc1cccc(C(NC(=O)N2CCN(Cc3c(F)cc(O)c(O)c3Cl)C(=O)C2=O)C(=O)N[C@H]2Cc3cccc(C(=O)O)c3OB2O)c1` (stereo partly drawn) [Example 131, (3R)-3-(2-(4-(2-chloro-6-fluoro-3,4-dihydroxybenzyl)-2,3-dioxopiperazine-1-carboxamido)-2-(3-(sulfamoylamino)phenyl)acetamido)-2-hydroxy-3,4-dihydro-2H-benzo[e][1,2]oxaborinine-8-carboxylic acid], the EC50 at A. baumannii PBP2 is 30 to 100 µM; in assay [1], less than 10 µM. The “P. aeruginosa PBP3 Potency” value at P. aeruginosa PBP3 is “D (D represents a potency <10 μM)”.
On the same counts, the results for `NS(=O)(=O)c1cc(O)cc(C(NC(=O)N2CCN(Cc3c(F)cc(O)c(O)c3Cl)C(=O)C2=O)C(=O)N[C@H]2Cc3cccc(C(=O)O)c3OB2O)c1` (stereo partly drawn) [Example 132, (3R)-3-(2-(4-(2-chloro-6-fluoro-3,4-dihydroxybenzyl)-2,3-dioxopiperazine-1-carboxamido)-2-(3-hydroxy-5-sulfamoylphenyl)acetamido)-2-hydroxy-3,4-dihydro-2H-benzo[e][1,2]oxaborinine-8-carboxylic acid] are greater than 100 µM, less than 10 µM and “D (D represents a potency <10 μM)”.
Regarding `CCN1CCN(C(=O)NC(C(=O)N[C@H]2Cc3cccc(C(=O)O)c3OB2O)c2c(F)cc(N)cc2F)C(=O)C1=O` (stereo partly drawn) [Example 181, (3R)-3-(2-(4-amino-2,6-difluorophenyl)-2-(4-ethyl-2,3-dioxopiperazine-1-carboxamido)acetamido)-2-hydroxy-3,4-dihydro-2H-benzo[e][1,2]oxaborinine-8-carboxylic acid], the EC50 (at A. baumannii PBP2; at N. gonorrhoeae PBP2; in assay [1]) was greater than 100 µM throughout.

For the origin of these results see US20230114728A1 (Venatorx Pharmaceuticals, Inc., priority 2019, published 2023).
